pIC50, pKi: −log10 of the molar value.
Experiments:
[1] = biological target: Serine/threonine-protein kinase Chk2 (Homo sapiens) (UniProt O96017); assay: CHK2 Invitrogen kinase activity assay; details: Compound concentration 1.0 uM
[2] = biological target: Tyrosine-protein kinase Lyn (Homo sapiens, UniProt P07948); assay: Cerep profiling assay (LYN); parameters: compound concentration 10 uM
[3] = biological target: Serine/threonine-protein kinase 26 (Homo sapiens) (UniProt Q9P289); assay: MASK Invitrogen kinase activity assay; details: Compound concentration 1.0 uM
Adenosine receptor A2a = Adenosine receptor A2a (Homo sapiens, UniProt P29274); assay: Cerep profiling assay (ADORA2A); parameters: compound concentration 10 uM
D(1A) dopamine receptor = D(1A) dopamine receptor (Homo sapiens, UniProt P21728); assay: GPCRScan assay: inhibition of D1; parameters: radioligand conc. used [nm] 0.6 – 1.3, parental cells HEKT
[4] = biological target: 5-hydroxytryptamine receptor 1A (Homo sapiens) (UniProt P08908); details: Compound concentration 10.0 uM
[5] = biological target: T1, Aurora kinase A (Homo sapiens) (UniProt O14965); assay: (§1) Aurora-A Invitrogen kinase activity assay; details: Compound concentration 1.0 uM
T1 sequence (whole entry): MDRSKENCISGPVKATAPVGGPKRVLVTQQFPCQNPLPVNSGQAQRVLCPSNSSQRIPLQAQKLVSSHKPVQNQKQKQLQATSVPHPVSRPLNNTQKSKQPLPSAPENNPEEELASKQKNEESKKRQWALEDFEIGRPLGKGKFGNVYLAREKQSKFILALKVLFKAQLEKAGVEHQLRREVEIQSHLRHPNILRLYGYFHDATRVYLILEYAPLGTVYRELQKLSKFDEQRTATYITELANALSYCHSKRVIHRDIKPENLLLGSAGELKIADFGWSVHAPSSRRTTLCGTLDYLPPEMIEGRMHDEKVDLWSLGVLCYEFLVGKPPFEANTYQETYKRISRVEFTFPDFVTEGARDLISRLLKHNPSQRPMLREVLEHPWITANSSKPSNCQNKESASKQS

Aurora kinase A = Aurora kinase A (Homo sapiens, UniProt O14965); assay: as §1
[6] = biological target: T2, Serine/threonine-protein kinase Sgk1 (Homo sapiens) (UniProt O00141); assay: SGK Invitrogen kinase activity assay; details: Compound concentration 1.0 uM
T2 sequence (whole entry): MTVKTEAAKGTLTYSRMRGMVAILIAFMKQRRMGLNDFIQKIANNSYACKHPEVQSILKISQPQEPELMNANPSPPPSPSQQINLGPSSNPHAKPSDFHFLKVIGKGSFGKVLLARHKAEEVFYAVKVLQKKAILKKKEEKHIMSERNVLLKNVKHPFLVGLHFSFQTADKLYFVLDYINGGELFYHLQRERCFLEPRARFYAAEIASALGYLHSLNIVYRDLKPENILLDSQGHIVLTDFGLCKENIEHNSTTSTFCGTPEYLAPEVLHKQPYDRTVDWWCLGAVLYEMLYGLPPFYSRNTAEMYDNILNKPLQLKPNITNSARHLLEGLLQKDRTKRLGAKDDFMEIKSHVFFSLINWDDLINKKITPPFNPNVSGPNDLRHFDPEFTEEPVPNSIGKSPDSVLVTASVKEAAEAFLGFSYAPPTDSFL

[7] = biological target: Protein kinase C zeta type (Homo sapiens) (UniProt Q05513); assay: PKCzeta Invitrogen kinase activity assay; details: Compound concentration 1.0 uM
[8] = biological target: Tyrosine-protein kinase ABL1 (Homo sapiens, UniProt P00519); assay: ABL Invitrogen kinase activity assay
[9] = biological target: T3, Inhibitor of nuclear factor kappa-B kinase subunit beta (Homo sapiens) (UniProt O14920); assay: IKKβ Invitrogen kinase activity assay; details: Compound concentration 1.0 uM
T3 sequence (whole entry): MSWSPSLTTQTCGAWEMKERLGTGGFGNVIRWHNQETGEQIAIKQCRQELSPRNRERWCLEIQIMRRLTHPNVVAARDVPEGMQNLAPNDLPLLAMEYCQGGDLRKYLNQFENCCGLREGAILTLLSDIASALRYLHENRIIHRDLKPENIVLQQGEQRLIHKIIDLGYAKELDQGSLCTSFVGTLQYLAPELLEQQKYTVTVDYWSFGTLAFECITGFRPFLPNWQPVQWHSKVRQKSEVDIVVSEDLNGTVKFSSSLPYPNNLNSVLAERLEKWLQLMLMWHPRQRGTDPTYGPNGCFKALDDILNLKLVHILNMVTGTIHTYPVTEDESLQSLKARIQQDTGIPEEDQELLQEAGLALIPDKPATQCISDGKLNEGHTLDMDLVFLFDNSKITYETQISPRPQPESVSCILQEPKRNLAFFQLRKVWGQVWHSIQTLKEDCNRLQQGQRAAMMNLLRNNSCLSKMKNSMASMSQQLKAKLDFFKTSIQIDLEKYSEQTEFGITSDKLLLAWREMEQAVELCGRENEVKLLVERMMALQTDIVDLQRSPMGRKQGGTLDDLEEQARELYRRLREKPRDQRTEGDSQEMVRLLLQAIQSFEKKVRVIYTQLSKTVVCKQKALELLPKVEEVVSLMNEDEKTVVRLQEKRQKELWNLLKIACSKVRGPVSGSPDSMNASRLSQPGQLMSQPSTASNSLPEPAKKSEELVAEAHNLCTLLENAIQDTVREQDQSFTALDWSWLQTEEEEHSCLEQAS

[10] = biological target: Epidermal growth factor receptor (Homo sapiens) (UniProt P00533); assay: EGFR Invitrogen kinase activity assay; details: Compound concentration 1.0 uM
[11] = biological target: Calcium/calmodulin-dependent protein kinase type 1 (Homo sapiens) (UniProt Q14012); assay: CAMK1 Invitrogen kinase activity assay; details: Compound concentration 1.0 uM
[12] = biological target: GABA-A receptor; anion channel (Rattus norvegicus) (UniProt O09028+P15431+P18506+P18508+P19969+P20236+P23574+P23576+P28471+P28473+P30191+P62813+P63079+P63138+Q91ZM7+Q9ES14); details: Compound concentration 10.0 uM
[13] = biological target: Mu-type opioid receptor (Homo sapiens) (UniProt P35372); details: Compound concentration 10.0 uM
[14] = biological target: Muscarinic acetylcholine receptor M4 (Homo sapiens) (UniProt P08173); details: Compound concentration 10.0 uM
[15] = biological target: Beta-2 adrenergic receptor (Homo sapiens) (UniProt P07550); details: Compound concentration 10.0 uM

Chain of Tyrosine-protein kinase ABL1 (P00519 whole entry): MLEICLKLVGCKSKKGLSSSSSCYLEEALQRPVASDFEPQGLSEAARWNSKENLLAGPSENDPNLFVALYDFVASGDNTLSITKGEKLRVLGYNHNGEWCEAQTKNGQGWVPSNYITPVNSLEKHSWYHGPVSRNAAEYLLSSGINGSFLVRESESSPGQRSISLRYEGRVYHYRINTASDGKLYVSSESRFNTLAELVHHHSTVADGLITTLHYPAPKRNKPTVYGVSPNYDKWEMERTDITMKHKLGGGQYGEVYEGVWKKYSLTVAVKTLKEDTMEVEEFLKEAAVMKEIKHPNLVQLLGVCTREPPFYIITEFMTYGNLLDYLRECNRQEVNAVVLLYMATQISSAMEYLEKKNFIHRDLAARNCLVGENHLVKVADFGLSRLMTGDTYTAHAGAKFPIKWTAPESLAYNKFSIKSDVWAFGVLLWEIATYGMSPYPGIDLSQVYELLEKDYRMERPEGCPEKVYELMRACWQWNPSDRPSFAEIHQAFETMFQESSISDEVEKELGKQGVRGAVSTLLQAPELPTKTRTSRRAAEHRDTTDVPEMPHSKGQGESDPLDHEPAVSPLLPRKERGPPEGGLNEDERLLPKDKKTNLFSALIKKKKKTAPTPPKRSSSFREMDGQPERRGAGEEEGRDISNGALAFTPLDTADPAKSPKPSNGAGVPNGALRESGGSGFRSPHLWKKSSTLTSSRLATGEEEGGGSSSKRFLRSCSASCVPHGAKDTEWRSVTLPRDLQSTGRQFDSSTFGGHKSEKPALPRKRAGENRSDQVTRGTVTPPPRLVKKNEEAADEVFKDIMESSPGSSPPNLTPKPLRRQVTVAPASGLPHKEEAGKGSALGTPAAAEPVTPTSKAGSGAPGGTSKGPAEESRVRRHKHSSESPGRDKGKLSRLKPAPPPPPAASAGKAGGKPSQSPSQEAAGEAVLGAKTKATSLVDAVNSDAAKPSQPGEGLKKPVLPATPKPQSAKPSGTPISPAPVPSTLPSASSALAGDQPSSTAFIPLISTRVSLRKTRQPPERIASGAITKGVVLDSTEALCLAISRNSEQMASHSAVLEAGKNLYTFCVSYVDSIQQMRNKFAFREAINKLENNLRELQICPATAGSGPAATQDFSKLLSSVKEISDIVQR
Chain of Tyrosine-protein kinase Lyn (P07948 whole entry): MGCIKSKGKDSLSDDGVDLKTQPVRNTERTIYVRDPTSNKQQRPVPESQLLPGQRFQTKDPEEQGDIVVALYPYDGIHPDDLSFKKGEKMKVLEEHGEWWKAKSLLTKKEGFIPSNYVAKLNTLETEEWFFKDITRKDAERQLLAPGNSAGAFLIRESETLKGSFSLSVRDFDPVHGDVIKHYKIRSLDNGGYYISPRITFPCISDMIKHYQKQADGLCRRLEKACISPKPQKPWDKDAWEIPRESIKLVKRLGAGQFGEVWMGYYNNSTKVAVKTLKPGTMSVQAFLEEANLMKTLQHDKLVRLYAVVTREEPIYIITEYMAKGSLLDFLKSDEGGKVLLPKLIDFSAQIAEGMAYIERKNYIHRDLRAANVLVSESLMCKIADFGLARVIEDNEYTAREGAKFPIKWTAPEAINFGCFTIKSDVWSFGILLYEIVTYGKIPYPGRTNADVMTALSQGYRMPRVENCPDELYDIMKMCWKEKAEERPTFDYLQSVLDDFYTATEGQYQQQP
Chain of Calcium/calmodulin-dependent protein kinase type 1 (Homo sapiens) (Q14012 whole entry, looked up): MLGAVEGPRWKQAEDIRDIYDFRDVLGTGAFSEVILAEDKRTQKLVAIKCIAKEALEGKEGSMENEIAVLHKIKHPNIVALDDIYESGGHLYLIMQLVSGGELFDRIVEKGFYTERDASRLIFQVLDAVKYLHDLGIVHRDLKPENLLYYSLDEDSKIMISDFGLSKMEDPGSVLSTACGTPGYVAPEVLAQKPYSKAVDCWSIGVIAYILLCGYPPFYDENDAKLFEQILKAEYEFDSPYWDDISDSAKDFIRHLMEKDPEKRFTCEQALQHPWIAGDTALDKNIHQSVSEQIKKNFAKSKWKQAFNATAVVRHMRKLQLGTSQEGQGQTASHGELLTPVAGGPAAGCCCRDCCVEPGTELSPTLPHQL
Chain of Epidermal growth factor receptor (Homo sapiens) (P00533 whole entry): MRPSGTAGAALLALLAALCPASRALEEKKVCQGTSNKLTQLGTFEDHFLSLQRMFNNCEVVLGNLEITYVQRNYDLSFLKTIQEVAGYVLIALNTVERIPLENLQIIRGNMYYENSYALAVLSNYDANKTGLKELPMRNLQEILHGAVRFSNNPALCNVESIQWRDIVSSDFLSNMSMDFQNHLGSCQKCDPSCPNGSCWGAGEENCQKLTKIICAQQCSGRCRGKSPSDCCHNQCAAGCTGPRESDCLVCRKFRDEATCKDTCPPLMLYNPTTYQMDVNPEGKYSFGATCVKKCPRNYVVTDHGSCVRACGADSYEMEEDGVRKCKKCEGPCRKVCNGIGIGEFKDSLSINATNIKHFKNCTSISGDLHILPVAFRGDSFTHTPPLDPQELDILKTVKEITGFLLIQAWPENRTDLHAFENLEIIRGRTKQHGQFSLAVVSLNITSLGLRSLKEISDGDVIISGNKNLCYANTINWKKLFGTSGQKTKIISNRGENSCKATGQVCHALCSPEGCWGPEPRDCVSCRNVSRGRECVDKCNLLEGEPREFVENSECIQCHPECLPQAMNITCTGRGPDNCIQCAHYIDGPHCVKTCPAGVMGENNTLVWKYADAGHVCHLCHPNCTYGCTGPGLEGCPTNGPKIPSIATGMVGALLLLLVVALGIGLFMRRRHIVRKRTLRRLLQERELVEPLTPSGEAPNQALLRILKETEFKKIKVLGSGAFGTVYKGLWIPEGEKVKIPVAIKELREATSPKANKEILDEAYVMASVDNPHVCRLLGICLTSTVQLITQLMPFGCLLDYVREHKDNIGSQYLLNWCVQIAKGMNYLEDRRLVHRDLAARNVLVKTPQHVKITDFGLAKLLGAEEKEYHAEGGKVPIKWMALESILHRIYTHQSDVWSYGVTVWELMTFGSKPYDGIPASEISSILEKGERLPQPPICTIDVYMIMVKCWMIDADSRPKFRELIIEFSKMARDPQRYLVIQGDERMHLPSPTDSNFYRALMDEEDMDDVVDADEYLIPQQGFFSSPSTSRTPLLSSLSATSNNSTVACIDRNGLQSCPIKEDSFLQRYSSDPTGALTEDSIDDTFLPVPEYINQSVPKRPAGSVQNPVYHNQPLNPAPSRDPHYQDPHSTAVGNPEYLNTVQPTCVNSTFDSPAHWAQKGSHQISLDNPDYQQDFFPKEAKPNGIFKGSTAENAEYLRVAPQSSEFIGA
Chain of Adenosine receptor A2a (P29274 whole entry): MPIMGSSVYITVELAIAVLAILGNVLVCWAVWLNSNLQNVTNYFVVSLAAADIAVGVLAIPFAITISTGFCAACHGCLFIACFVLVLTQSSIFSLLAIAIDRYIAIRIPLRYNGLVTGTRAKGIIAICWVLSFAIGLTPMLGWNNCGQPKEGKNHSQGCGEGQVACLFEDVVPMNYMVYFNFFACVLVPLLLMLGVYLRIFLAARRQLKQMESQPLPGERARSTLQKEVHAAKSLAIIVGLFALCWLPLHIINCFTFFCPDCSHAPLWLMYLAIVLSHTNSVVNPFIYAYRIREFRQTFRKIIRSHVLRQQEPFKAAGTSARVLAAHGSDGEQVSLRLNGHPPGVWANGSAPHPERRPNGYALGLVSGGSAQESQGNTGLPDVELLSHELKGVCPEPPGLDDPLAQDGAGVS
Chain of Serine/threonine-protein kinase Chk2 (Homo sapiens) (O96017 whole entry): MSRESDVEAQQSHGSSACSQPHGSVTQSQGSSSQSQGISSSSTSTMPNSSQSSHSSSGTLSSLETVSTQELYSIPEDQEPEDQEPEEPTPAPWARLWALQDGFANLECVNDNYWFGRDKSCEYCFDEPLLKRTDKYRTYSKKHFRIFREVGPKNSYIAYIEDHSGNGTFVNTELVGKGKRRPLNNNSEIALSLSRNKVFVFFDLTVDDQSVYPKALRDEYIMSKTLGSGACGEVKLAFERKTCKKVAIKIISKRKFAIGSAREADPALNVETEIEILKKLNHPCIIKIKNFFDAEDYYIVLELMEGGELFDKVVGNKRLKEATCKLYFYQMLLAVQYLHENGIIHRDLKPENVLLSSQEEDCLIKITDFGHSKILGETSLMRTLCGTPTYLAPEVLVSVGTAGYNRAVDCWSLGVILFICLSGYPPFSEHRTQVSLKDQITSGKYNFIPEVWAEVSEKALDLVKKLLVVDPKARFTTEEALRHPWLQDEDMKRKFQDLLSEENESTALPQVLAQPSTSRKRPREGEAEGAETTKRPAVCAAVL
Chain of Serine/threonine-protein kinase 26 (Homo sapiens) (Q9P289 2-416 limits assumed): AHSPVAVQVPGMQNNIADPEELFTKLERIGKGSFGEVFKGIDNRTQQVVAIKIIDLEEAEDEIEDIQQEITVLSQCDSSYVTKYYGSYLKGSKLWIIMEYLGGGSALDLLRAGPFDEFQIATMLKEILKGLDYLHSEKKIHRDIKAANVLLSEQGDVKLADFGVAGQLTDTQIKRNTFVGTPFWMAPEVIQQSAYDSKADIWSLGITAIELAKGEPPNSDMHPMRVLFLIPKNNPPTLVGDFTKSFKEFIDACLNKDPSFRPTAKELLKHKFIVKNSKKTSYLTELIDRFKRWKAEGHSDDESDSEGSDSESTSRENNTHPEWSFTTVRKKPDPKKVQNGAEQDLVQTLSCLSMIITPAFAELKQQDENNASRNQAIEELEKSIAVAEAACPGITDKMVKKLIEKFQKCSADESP
Chain of D(1A) dopamine receptor (P21728 whole entry): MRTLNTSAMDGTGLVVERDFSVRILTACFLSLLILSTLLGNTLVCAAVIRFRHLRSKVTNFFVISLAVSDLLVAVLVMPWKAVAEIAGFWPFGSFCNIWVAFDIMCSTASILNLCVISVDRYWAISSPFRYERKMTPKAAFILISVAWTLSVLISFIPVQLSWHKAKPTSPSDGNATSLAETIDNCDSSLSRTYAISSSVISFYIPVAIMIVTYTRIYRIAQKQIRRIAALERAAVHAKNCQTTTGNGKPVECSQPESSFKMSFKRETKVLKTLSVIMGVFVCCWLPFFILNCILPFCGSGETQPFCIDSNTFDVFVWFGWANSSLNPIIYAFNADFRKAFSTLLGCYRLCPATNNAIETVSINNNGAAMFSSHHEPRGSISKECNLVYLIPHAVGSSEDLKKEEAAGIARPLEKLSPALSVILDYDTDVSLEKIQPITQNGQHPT

Row | SMILES | inhibition [1] [%] | IC50 [2] | inhibition [3] [%] | Ki (Adenosine receptor A2a) | pKi (D(1A) dopamine receptor) | inhibition [4] [%] | inhibition [5] [%] | pIC50 (Aurora kinase A) | inhibition [6] [%] | inhibition [7] [%] | pIC50 [8] | inhibition ([8]; Compound concentration 1.0 uM) [%] | inhibition [9] [%] | inhibition [10] [%] | inhibition [11] [%] | inhibition [12] [%] | inhibition [13] [%] | inhibition [14] [%] | inhibition [15] [%]
1 | CNC(=O)c1ccc(Nc2ncc(C(F)(F)F)c(NCc3nccnc3N(C)S(C)(=O)=O)n2)cc1 [DEFACTINIB] | 28 | 1.1 µM (not active) | 46 | 0.37 µM (not active) | 5.00 | -9.76 | 87 | 6.87 | 30 | 10 | 5.79 | 34 | 4 | 13 | 0 |  |  |  | 
2 | CN(c1ccnc(CNc2nc(Nc3ccc4c(c3)CC(=O)N4)ncc2C(F)(F)F)n1)S(C)(=O)=O [PF-00911705] |  |  |  |  |  |  |  |  |  |  |  |  |  |  |  | 10.3 | 0.77 | 8.94 | 15.3

From ChEMBL document CHEMBL4507299, “Data for DCP probe PF-04554878” (2021)
